Assay results as given in US7335665B2, “Spirocyclic piperidines as MCH1 antagonists and uses thereof” (H - Lundbeck A/S, priority 2003, dated 2008).

These molecules were tested against T1, rat MCH1 receptor (Rattus norvegicus, UniProt P97639) (assay: Radioligand binding assay at cloned rat MCH1 receptor ([3H]Compound A displacement)). Conditions: KI, cloned rat MCH1, membranes of transfected Peakr293 cells, 0.08 nM [3H]Compound A, 25° C., 90 minutes.
T1 construct: expressed in transfected cells; host or cells: Human embryonic kidney Peak rapid 293 cells (Peakr293), transient, calcium phosphate; membranes
Method: For binding assays, pellets of transfected cells are suspended in ice-cold buffer (20 mM Tris.HCl, 5 mM EDTA, pH 7.4) and homogenized by sonication for 7 sec. The cell lysates are centrifuged at 200×g for 5 min at 4° C. The supernatants are then centrifuged at 40,000×g for 20 min at 4° C. The resulting pellets are washed once in the homogenization buffer and suspended in binding buffer (see methods for radioligand binding). Protein concentrations are determined by the method of Bradford (1976) using bovine serum albumin as the standard. Binding assays are usually performed immediately, however it is possible to prepare membranes in batch and store frozen in liquid nitrogen for future use.
Radioligand binding assays for the rat MCH1 receptor were carried out using plasmid pcDNA3.1-rMCH1-f (ATCC Patent Deposit Designation No. PTA-3505). Plasmid pcDNA3.1-rMCH1-f comprises the regulatory elements necessary for expression of DNA in a mammalian cell operatively linked to DNA encoding the rat MCH1 receptor so as to permit expression thereof. Plasmid pcDNA3.1-rMCH1-f was deposited on Jul. 5, 2001, with the American Type Culture Collection (ATCC), 12301 Parklawn Drive, Rockville, Md. 20852, U.S.A. under the provisions of the Budapest Treaty for the International Recognition of the Deposit of Microorganisms for the Purposes of Patent Procedure and was accorded ATCC Patent Deposit Designation No. PTA-3505.
Human embryonic kidney Peak rapid 293 cells (Peakr293 cells) were transiently transfected with DNA encoding the MCH1 receptor utilizing the calcium phosphate method and cell membranes were prepared as described above. Binding experiments with membranes from Peakr293 cells transfected with the rat MCH1 receptor were performed with 0.08 nM [^3H]Compound A (custom labeled by Amersham) (the synthesis of Compound A is described in detail below) using an incubation buffer consisting of 50 mM Tris pH 7.4, 10 mM MgCl2, 0.16 mM PMSF, 1 mM 1,10 phenantroline and 0.2% BSA. Binding was performed at 25° C. for 90 minutes. Incubations were terminated by rapid vacuum filtration over GF/C glass fiber filters, presoaked in 5% PEI using […] Tris pH 7.4 as wash buffer. In all experiments, nonspecific binding is defined using […] Compound A.
The compounds described above were assayed using cloned rat MCH1.

T1 sequence (P97639 whole entry): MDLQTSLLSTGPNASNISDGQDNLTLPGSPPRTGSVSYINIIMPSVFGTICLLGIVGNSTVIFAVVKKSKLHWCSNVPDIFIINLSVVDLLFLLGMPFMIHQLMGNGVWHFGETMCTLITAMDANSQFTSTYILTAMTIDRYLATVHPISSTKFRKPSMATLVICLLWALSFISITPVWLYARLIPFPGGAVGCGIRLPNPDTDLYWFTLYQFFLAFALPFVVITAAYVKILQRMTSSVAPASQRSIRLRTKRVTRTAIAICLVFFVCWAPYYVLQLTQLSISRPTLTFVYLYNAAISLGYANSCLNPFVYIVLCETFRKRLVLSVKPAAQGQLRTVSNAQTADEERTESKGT

SMILES	Ki [nM]
O=C(Cc1ccc(F)cc1)NCCCCN1CCC2(CCc3ccccc32)CC1 [Example 9, 2-(4-FLUOROPHENYL)-N-(4-(SPIRO[INDANE-1,4′-PIPERIDINE]-10-YL)BUTYL)ACETAMIDE]	691
O=C(NCCCCCCN1CCC2(CCc3ccccc32)CC1)c1cc(F)cc(F)c1 [Example 14]	843
O=C(NCCCCCCN1CCC2(CCc3ccccc32)CC1)C(c1ccccc1)c1ccccc1 [Example 5, 2,2-DIPHENYL-N-(6-(SPIRO[INDANE-1,4′-PIPERIDINE]-10-Y)LHEXYL)ACETAMIDE]	732
O=C(NCCCN1CCC2(CC1)OCc1ccccc12)C(c1ccc(F)cc1)c1ccc(F)cc1 [Example 84, 2,2-BIS(4-FLUOROPHENYL)-N-(3-(SPIRO[1,3-DIHYDROISOBENZOFURAN-1,4′-PIPERIDINE]-10-YL)PROPYL)ACETAMIDE]	4.9
O=C(NCCCN1CCC2(CCc3ccccc32)CC1)C(c1ccccc1)(c1ccccc1)c1ccccc1 [Example 49, 2,2,2-TRIPHENYL-N-(3-(SPIRO[INDANE-1,4′-PIPERIDINE]-10-YL)PROPYL)ACETAMIDE]	121
O=C(Cc1ccc(F)c(F)c1)NCCCN1CCC2(CC1)OCc1ccccc12 [Example 86, 2-(3,4-DIFLUOROPHENYL)-N-(3-(SPIRO[1,3-DIHYDROISOBENZOFURAN-1,4′-PIPERIDINE]-10-YL)PROPYL)ACETAMIDE]	379
O=C(NCCCN1CCC2(CC1)OCc1cc(F)c(F)c(F)c12)C(c1ccccc1)c1ccccc1 [Example 99, 2,2-DIPHENYL-N-[3-(4,5,6-TRIFLUOROSPIRO[1,3-DIHYDROISOBENZOFURAN-3,4′-PIPERIDINE]-10-YL)PROPYL]ACETAMIDE]	11.6
CCCc1nn(-c2ccc(Cl)cc2)cc1C(=O)NCCCCCCN1CCC2(CCc3ccccc32)CC1 [Example 10, [1-(4-CHLOROPHENYL)-3-PROPYL)PYRAZOL-4-YL]-N-(6-(SPIRO[INDANE-1,4′-PIPERIDINE]-10-YL)HEXYL)CARBOXAMIDE]	764
CC(C)(C)c1cc(C(=O)NCCCCCCN2CCC3(CCc4ccccc43)CC2)n(Cc2ccccc2)n1 [Example 20, [3-(TERT-BUTYL)-1-BENZYL)PYRAZOL-5-YL]-N-(6-(SPIRO[INDANE-1,4′-PIPERIDINE]-10-YL)HEXYL)CARBOXAMIDE]	510
O=C1OC2(CCN(CCCNC(=O)C(c3ccc(Cl)cc3)c3ccc(Cl)cc3)CC2)c2ccccc21 [Example 94, 2,2-BIS(4-CHLOROPHENYL)-N-[3-(1-OXOSPIRO[3-HYDROISOBENZOFURAN-3,4′-PIPERIDINE]-10-YL)PROPYL]ACETAMIDE]	600
CC(C(=O)NCCCN1CCC2(C=Cc3ccccc32)CC1)(c1ccccc1)c1ccccc1 [Example 63, 2,2-DIPHENYL-N-(3-(SPIRO[INDENE-1,4′-PIPERIDINE]-10-YL)PROPYL)PROPANAMIDE]	46
O=C(NCCCN1CCC2(C=Cc3ccccc32)CC1)C(c1ccccc1)(c1ccccc1)c1ccccc1 [Example 64, 2,2,2-TRIPHENYL-N-(3-(SPIRO[INDENE-1,4′-PIPERIDINE]-10-YL)PROPYL)ACETAMIDE]	36

Same assay, conditions: cloned rat MCH1, membranes of transfected Peakr293 cells, 0.08 nM [3H]Compound A, 25° C., 90 minutes; read-out: KI

SMILES	Ki [nM]
O=C(NCCCCN1CCC2(CCc3ccccc32)CC1)Nc1ccc(-c2ccccc2)cc1 [Example 28, N-(4-PHENYL)PHENYL)[(4-(SPIRO[INDANE-1,4′-PIPERIDINE]-10-YL)BUTYL)AMINO]CARBOXAMIDE]	549
O=C(NCCCN1CCC2(CC1)OCc1ccccc12)C1(c2ccc(Cl)cc2)CC1 [Example 89, [(4-CHLOROPHENYL)CYCLOPROPYL]-N-(3-(SPIRO[1,3-DIHYDROISOBENZOFURAN-1,4′-PIPERIDINE]-10-YL)PROPYL)CARBOXAMIDE]	481
O=C(NCCCN1CCC2(C=Cc3ccccc32)CC1)C(c1ccc(Cl)cc1)c1ccc(Cl)cc1 [Example 68, 2,2-BIS(4-CHLOROPHENYL)-N-(3-(SPIRO[INDENE-1,4′-PIPERIDINE]-10-YL)PROPYL)ACETAMIDE]	5.8
O=C(NCCCN1CCC2(CCc3ccccc32)CC1)C1(c2ccc(F)cc2)CCCCC1 [Example 56, [1-(4-FLUOROPHENYL)CYCLOHEXYL]-N-(3-(SPIRO[INDANE-1,4′-PIPERIDINE]-10-YL)PROPYL)CARBOXAMIDE]	108
O=C(NCCCN1CCC2(C=Cc3ccccc32)CC1)C1(c2ccc(F)cc2)CCCC1 [Example 70, [(4-FLUOROPHENYL)CYCLOPENTYL]-N-(3-(SPIRO[INDENE-1,4′-PIPERIDINE]-10-YL)PROPYL)CARBOXAMIDE]	203
CC(C(=O)NCCCN1CCC2(CCc3ccccc32)CC1)(c1ccccc1)c1ccccc1 [Example 47, 2,2-DIPHENYL-N-(3-(SPIRO[INDANE-1,4′-PIPERIDINE]-10-YL)PROPYL)PROPANAMIDE]	154
O=C(NCCCCN1CCC2(CCc3ccccc32)CC1)c1cc(Cl)cc(Cl)c1 [Example 7, (3,5-DICHLOROPHENYL)-N-[(4-(SPIRO[INDANE-1,4′-PIPERIDINE]-10-YL)BUTYL)AMINO]CARBOXAMIDE]	271
Cc1ccc2c(c1)COC21CCN(CCCNC(=O)C(c2ccccc2)c2ccccc2)CC1 [Example 103, N-[3-(5-METHYLSPIRO[1,3-DIHYDROISOBENZOFURAN-1,4′-PIPERIDINE]-10-YL)PROPYL]-2,2-DIPHENYLACETAMIDE]	14.7
CC(C)c1ccc2c(c1)COC21CCN(CCCNC(=O)C(c2ccccc2)c2ccccc2)CC1 [Example 102, N-{3-[5-(METHYLETHYL)SPIRO[1,3-DIHYDROISOBENZOFURAN-1,4′-PIPERIDINE]-10-YL]PROPYL}-2,2-DIPHENYLACETAMIDE]	162
O=C(NCCCCCN1CCC2(C=Cc3ccccc32)CC1)c1sc2ccccc2c1Cl [Example 36, (3-CHLOROBENZO[B]THIOPHEN-2-YL)-N-(5-(SPIRO[INDENE-1,4′-PIPERIDINE]-10-YL)PENTYL)CARBOXAMIDE]	736
O=C(NCCCCCCN1CCC2(CCc3ccccc32)CC1)c1ccc(-c2ccccc2)cc1 [Example 2, (4-PHENYL)PHENYL)-N-(6-(SPIRO[INDANE-1,4′-PIPERIDINE]-10-YL)HEXYL)CARBOXAMIDE]	970
O=C(NCCCN1CCC2(C=Cc3ccccc32)CC1)C(c1ccccc1)c1ccccc1 [Example 38, 2,2-DIPHENYL-N-(3-SPIRO[INDENE-1,4′-PIPERIDINE]-10-YLPROPYL)ACETAMIDE]	6.5
CC(C(=O)NCCCN1CCC2(C=Cc3ccccc32)CC1)c1ccc(Cl)cc1 (stereo not drawn) [Example 66, 2-(4-CHLOROPHENYL)-N-(3-(SPIRO[INDENE-1,4′-PIPERIDINE]-10-YL)PROPYL)PROPANAMIDE]	140
CC(C)(C(=O)NCCCN1CCC2(CC1)OCc1ccccc12)c1ccc(Cl)cc1 [Example 81, 2-(4-CHLOROPHENYL)-2-METHYL-N-(3-(SPIRO[1,3-DIHYDROISOBENZOFURAN-1,4′-PIPERIDINE]-10-YL)PROPYL)PROPANAMIDE]	185
O=C(NCCCN1CCC2(CCc3ccccc32)CC1)C(c1ccccc1)c1ccccc1 [Example 6, 2,2-DIPHENYL-N-(3-(SPIRO[INDANE-1,4′-PIPERIDINE]-10-YL)PROPYL)ACETAMIDE]	33.8
Cc1onc(-c2ccccc2Cl)c1C(=O)NCCCCN1CCC2(CCc3ccccc32)CC1 [Example 35, [3-(2-CHLOROPHENYL)-5-METHYLISOXAZOL-4-YL]-N-(4-(SPIRO[INDANE-1,4′-PIPERIDINE]-10-YL)BUTYL)CARBOXAMIDE]	825
O=C(NCCN1CCC2(CCc3ccccc32)CC1)c1ccc(F)c(F)c1 [Example 45, (3,4-DIFLUOROPHENYL)-N-(2-(SPIRO[INDANE-1,4′-PIPERIDINE]-10-YLETHYL)CARBOXAMIDE]	802
O=C(NCCCN1CCC2(CC1)Cc1ccccc1C2=O)C(c1ccc(Cl)cc1)c1ccc(Cl)cc1 [Example 91, 2,2-BIS(4-CHLOROPHENYL)-N-[3-(1-OXOSPIRO[INDANE-2,4′-PIPERIDINE]-10-YL)PROPYL]ACETAMIDE]	381
O=C(NCCCN1CCC2(CCCc3ccccc32)CC1)C(c1ccccc1)c1ccccc1 [Example 39, 2,2-DIPHENYL-N-(3-SPIRO[1,2,3,4-TETRAHYDRONAPHTHALENE-1,4′-PIPERIDINE]-11-YLPROPYL)ACETAMIDE]	128
O=C(NCCCCCCN1CCC2(CCc3ccccc32)CC1)c1ccc(-c2ccccc2)cc1 [Example 29, (4-PHENYL)PHENYL)-N-(6-(SPIRO[INDANE-1,4′-PIPERIDINE]-10-YL)HEXYL)CARBOXAMIDE]	431
O=C(NCCN1CCC2(CCc3ccccc32)CC1)c1cccc(Cl)c1 [Example 43, (3-CHLOROPHENYL)-N-(2-(SPIRO[INDANE-1,4′-PIPERIDINE]-10-YLETHYL)CARBOXAMIDE]	507
